Holding throughout (details): incubation time: 72 h
The test system of assay [1] is BT-474. Put plainly: normalised response (% of control), CellTiter-Glo; higher = more viable cells (100 = DMSO, 0 = benzethonium chloride kill control). In outline: (§1)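 Normalised signals at single concentrations make up the values. They come from breast cancer cell lines seeded (20 µl suspension) into 384-well plates with compound at 5 concentrations in 10-fold steps over a compound-specific 10,000-fold range, incubated 72 h, and read for CellTox Green fluorescence then CellTiter-Glo luminescence. Each plate was normalised to 0.1 % DMSO (100) and a positive kill control (0).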

Assay [2] deals with BT-549. The assay is described as above. In outline: as §1
Assay [3] deals with CAL-120. Described as above. Summed up:
as §1

Assay [4] deals with CAL-148. Described as above. Summed up:
as §1

In assay [5] the test system is CAL-51. The assay is described as above. Summed up: as §1
The subject of assay [6] is CAL-85-1. The assay is described as above. Summed up: as §1
Assay [7] has as its system DU-4475. Described as above. Summed up:
as §1

Assay [8] deals with HCC1143. Described as above. In outline:
as §1

Assay [9] relates to HCC1599. The description is as above. Summed up:
as §1

The test system of assay [10] is HCC1937. The assay is described as above. Summed up: as §1
Assay [11] has as its system HDQ-P1. The assay is described as above. In outline: as §1
Assay [12] concerns Hs578T. Described as above. In outline: as §1
Assay [13] concerns MCF-10A. The description is as above. Summed up:
as §1

Assay [14] relates to MDA-MB-231. The assay is described as above. In outline:
as §1

Assay [15] concerns MDA-MB-436. Described as above. In outline:
as §1

For assay [16], the system named is MDA-MB-453. The assay is described as above. Summed up:
as §1

Assay [17] concerns MDA-MB-468. The description is as above. In outline: as §1
Assay [18] has as its system MFM-223. Described as above. In outline:
as §1

Assay [19] concerns SK-BR-3. Described as above. In outline:
as §1

Assay [20] concerns CAL-120. Description: normalised viability (% of control), CellTiter-Blue; higher = more viable cells (100 = DMSO, 0 = benzethonium chloride kill control). The procedure: (§2)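 DSRT, CellTiter-Blue viability, 72 h incubation. Signal is normalised to DMSO and benzethonium chloride controls. Value is the normalised response at dose 1.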
For assay [21], the system named is CAL-148. The description is as above. How it is done: as §2
Assay [22] has as its system CAL-51. The description is as above. How it is done: as §2
Assay [23] relates to CAL-85-1. The assay is described as above. The procedure:
as §2

Assay [24] deals with DU-4475. The assay is described as above. The procedure:
as §2

For assay [25], the system named is HCC1143. Described as above. The procedure: as §2
Assay [26] concerns HCC1599. The description is as above. The procedure:
as §2

For assay [27], the system named is HCC1937. The assay is described as above. How it is done:
as §2

Assay [28] relates to HDQ-P1. The description is as above. How it is done: as §2
The subject of assay [29] is Hs578T. Described as above. How it is done: as §2
Assay [30] deals with MDA-MB-231. The assay is described as above. The procedure:
as §2

The subject of assay [31] is MDA-MB-453. The description is as above. The procedure: as §2
For assay [32], the system named is MDA-MB-468. Described as above. How it is done:
as §2

The subject of assay [33] is MFM-223. Described as above. How it is done:
as §2

In assay [34] the test system is SK-BR-3. Described as above. The procedure:
as §2

For assay [35], the system named is CAL-148. Description: normalised viability (% of control), CellTiter-Blue; higher = more viable cells (about 100 = DMSO control). The procedure: (§3)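 DSRT, CellTiter-Blue viability, 72 h incubation. Signal is normalised to DMSO and benzethonium chloride controls. Value is the normalised response at dose 9.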
Assay [36] concerns CAL-51. The description is as above. How it is done:
as §3

Assay [37] relates to CAL-85-1. The assay is described as above. How it is done: as §3
Assay [38] deals with DU-4475. Described as above. How it is done: as §3
Assay [39] has as its system HDQ-P1. The assay is described as above. The procedure: as §3
Assay [40] has as its system MDA-MB-453. The description is as above. How it is done:
as §3

The subject of assay [41] is CAL-148. Described as above. The procedure:
(§4)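 DSRT, CellTiter-Blue viability, 72 h incubation. Signal is normalised to DMSO and benzethonium chloride controls. Value is the normalised response at dose 8.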
The source holds these as a separate data set.

In assay [42] the test system is CAL-51. Described as above. How it is done:
as §4
The source holds these as a separate data set.

Assay [43] concerns CAL-85-1. The assay is described as above. The procedure: as §4
The source holds these as a separate data set.

The test system of assay [44] is DU-4475. The assay is described as above. The procedure: as §4
The source holds these as a separate data set.

Assay [45] relates to HDQ-P1. The assay is described as above. How it is done: as §4
This is another data set of the same source.

For assay [46], the system named is MDA-MB-453. The assay is described as above. The procedure: as §4
The source holds these as a separate data set.

Several values for one entry are separate records, joined by “and”; a condition that tells them apart may be missing. Equal entries are not always repeated.

Take `CCCCCOC(=O)Nc1nc(=O)n([C@@H]2O[C@H](C)[C@@H](O)[C@H]2O)cc1F` [Capecitabine] (1 nM): the normalised response in assay [1] worked out at 95.2%; in assay [2], 107%; in assay [3], 94.6%; in [4], 106%; in assay [5], 67.8%; in assay [6] it was 96.8%. Besides, the normalised response is 99.7% in assay [7]; 96.8% in assay [8]; 95.5% in [9]; 98.2% in assay [10]; 102% in assay [11]; 102% in assay [12]. The normalised response is 94.5% in assay [13]; 102% in assay [14]; 88.7% in [15]; 113% in [16]; 103% in assay [17]; 98.2% in assay [18]. The compound also came in with a normalised response in assay [19] of 110%. In addition, the normalised viability was 85.3% and 96.5% in assay [20]; 106% and 102% in assay [21]; 106% and 99.2% in assay [22]; 86.7% and 109% in assay [23]; 108% and 102% in assay [24]; 93.5% and 107% in assay [25]. The normalised viability in assay [26] is 88.8% and 111%; in assay [27], 84.3% and 85%; in assay [28], 85.1% and 91.7%; in [29], 105% and 96.7%; in [30], 94.7% and 83.7%; in [31] it was 102% and 97.9%. Also, the normalised viability in assay [32] is 106% and 115%; in assay [33], 88.8% and 95.7%; in assay [34], 117% and 92.1%.
Take `C[C@@H](CN1CC(=O)NC(=O)C1)N1CC(=O)NC(=O)C1` [Dexrazoxane] (10000 nM): the normalised viability in assay [35] amounted to 96.2%; in [36] it was 92.9%; in assay [37], 93.7%; in assay [38] it was 102%; in assay [39], 85.2%; in assay [40], 100%.
With `N[C@@H](Cc1ccc(N(CCCl)CCCl)cc1)C(=O)O` [Melphalan] (990 nM), the normalised viability was 74.2% in assay [35]; 68.8% in assay [36]; 72.1% in assay [37]; 62.4% in assay [38]; 94% in assay [39]; 95.8% in assay [40].
In the case of `Cc1c(C(=O)Nc2ccc(N3C[C@@H](C)O[C@@H](C)C3)nc2)cccc1-c1ccc(OC(F)(F)F)cc1` [NVP-LDE225] (10000 nM), the normalised viability in assay [35] amounted to 121%; in assay [36] it was 92.5%; in [37], 98.4%; in assay [38], 110%; in [39], 127%; in assay [40], 82.8%.
For the compound `CO[C@H](C(=O)[C@@H](O)[C@@H](C)O)[C@@H]1Cc2cc3cc(O[C@H]4C[C@@H](O[C@@H]5C[C@@H](O)[C@H](O)[C@@H](C)O5)[C@H](O)[C@@H](C)O4)c(C)c(O)c3c(O)c2C(=O)[C@H]1O[C@H]1C[C@@H](O[C@@H]2C[C@@H](O)[C@@H](O[C@@H]3C[C@](C)(O)[C@H](O)[C@@H](C)O3)[C@@H](C)O2)[C@H](O)[C@@H](C)O1` [Plicamycin] (3000 nM), the normalised viability is 5.24% and 3.76% in [41]; 3.09% and 4.26% in assay [42]; 5.82% and 5.38% in [43]; 2.08% and 0.69% in assay [44]; 23.8% and 15.9% in assay [45]; 7% and 7.5% in assay [46].
In the case of `C[C@]12C=CC(=O)C=C1CC[C@@H]1[C@@H]2C(=O)C[C@@]2(C)[C@H]1CC[C@]2(O)C(=O)CO` [Prednisone] (3000 nM), the normalised viability in assay [41] is 94.2%; in assay [42] it was 102%; in [43] it was 99.3%; in [44], 104%; in assay [45] it was 120%; in [46] it was 93.5%.
`CO[C@H]1C[C@@H]2CC[C@@H](C)[C@@](O)(O2)C(=O)C(=O)N2CCCC[C@H]2C(=O)O[C@H]([C@H](C)C[C@@H]2CC[C@@H](O)[C@H](OC)C2)CC(=O)[C@H](C)/C=C(\C)[C@@H](O)[C@@H](OC)C(=O)[C@H](C)C[C@H](C)/C=C/C=C/C=C/1C` [Sirolimus] (300 nM): the normalised viability is 39.1% in assay [41]; 31.1% in [42]; 59.8% in assay [43]; 63.7% in assay [44]; 58.8% in assay [45]; 31.6% in [46].
Turning to `CO[C@H]1C[C@@H]2CC[C@@H](C)[C@@](O)(O2)C(=O)C(=O)N2CCCC[C@H]2C(=O)O[C@H]([C@H](C)C[C@@H]2CC[C@@H](O)[C@H](OC)C2)CC(=O)[C@H](C)/C=C(\C)[C@@H](O)[C@@H](OC)C(=O)[C@H](C)C[C@H](C)/C=C/C=C/C=C/1C` [Sirolimus] (1000 nM), the normalised viability was found to be 44% in [35]; 26.1% in assay [36]; 59.3% in assay [37]; 59.9% in assay [38]; 70.3% in [39]; 25.3% in assay [40].
`CN1CCN(c2nc(C3=C(c4c[nH]c5ccccc45)C(=O)NC3=O)c3ccccc3n2)CC1` [Sotrastaurin] (3000 nM): the normalised viability in assay [41] is 116%; in assay [42], 97.3%; in [43] it was 141%; in assay [44], 95.9%; in assay [45], 126%; in assay [46], 93.8%.
For the compound `CC/C(=C(\c1ccccc1)c1ccc(OCCN(C)C)cc1)c1ccccc1` [Tamoxifen] (3000 nM), the normalised viability was determined as 117% in assay [41]; 99.1% in [42]; 102% in assay [43]; 106% in assay [44]; 100% in [45]; 89.7% in assay [46].
Turning to `COc1cc2c(N3CCN(C(=O)Nc4ccc(OC(C)C)cc4)CC3)ncnc2cc1OCCCN1CCCCC1` [Tandutinib] (300 nM), the normalised viability was 94.4% in [41]; 115% in assay [42]; 95.7% in [43]; 109% in assay [44]; 93.5% in [45]; 102% in [46].
For `C[C@@H](C(=O)O)c1ccc(-c2ccccc2)c(F)c1` [Tarenflurbil] (3000 nM), the normalised viability in assay [41] came out at 94.4%; in assay [42], 113%; in assay [43] it was 88.8%; in [44] it was 115%; in [45], 93%; in [46] it was 79.5%.
On to `Cn1nnc2c(C(N)=O)ncn2c1=O` [Temozolomide] (3000 nM), for which the normalised viability in assay [41] worked out at 88.8%; in assay [42] it was 93.6%; in [43] it was 97.3%; in assay [44] it was 100%; in [45], 103%; in assay [46] it was 104%.
On to `CC[C@@H]1C(=O)N(C)c2cnc(Nc3ccc(C(=O)N[C@H]4CC[C@H](N5CCN(CC6CC6)CC5)CC4)cc3OC)nc2N1C(C)C` [Volasertib] (300 nM), for which the normalised viability came out at 26.6% in assay [41]; 9.3% in [42]; 64.6% in assay [43]; 18.6% in assay [44]; 59.4% in assay [45]; 34.3% in [46].

The values above are taken from the supplement of paper PMC4862054.
